The target in data set [1] is T1, Riboflavin transporter 2 (RFVT2) (Homo sapiens, UniProt Q9HAB3).
T1 construct: gene SLC52A2; hRFVT2 carrying an N-terminal 6-Histidine tag
T1 sequence (Q9HAB3 1-445): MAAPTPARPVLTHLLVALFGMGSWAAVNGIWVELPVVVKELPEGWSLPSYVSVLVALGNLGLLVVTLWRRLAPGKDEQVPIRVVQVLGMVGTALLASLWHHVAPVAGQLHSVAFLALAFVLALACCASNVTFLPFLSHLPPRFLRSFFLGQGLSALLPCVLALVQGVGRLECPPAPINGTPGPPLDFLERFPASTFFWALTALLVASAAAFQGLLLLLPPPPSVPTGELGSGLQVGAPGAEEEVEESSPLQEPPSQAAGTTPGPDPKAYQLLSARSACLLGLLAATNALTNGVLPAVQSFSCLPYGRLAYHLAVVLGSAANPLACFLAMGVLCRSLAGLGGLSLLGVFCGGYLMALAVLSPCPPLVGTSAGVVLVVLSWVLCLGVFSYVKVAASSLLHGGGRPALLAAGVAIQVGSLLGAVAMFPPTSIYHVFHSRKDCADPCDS
The data set is described as follows: inhibition of [3H]riboflavin uptake in proteoliposomes with purified recombinant RFVT2, dose-response. It is filed as biochemical.

Substrate in the data set “purified protein”: Cc1cc2nc3c(=O)[nH]c(=O)nc-3n(C[C@H](O)[C@H](O)[C@H](O)CO)c2cc1C
Kind of data set: purified protein.

For orientation: IC50 means the concentration that inhibits the measured activity by half. In general, Km refers to the concentration of substrate that gives half-maximal velocity.

With `Cc1cc2nc3c(=O)[nH]c(=O)nc-3n(C[C@H](O)[C@H](O)[C@H](O)COP(=O)(O)O)c2cc1C` [FMN], in data set [1], the IC50 came to 3.3 ± 0.8 µM.

B1: Riboflavin transporter 2 (RFVT2) (Homo sapiens) (protein)
chain: T1 sequence (Q9HAB3 1-445)
Take B1: the Km in “purified protein” was found to be 0.26 ± 0.07 µM.

(Values after paper PMC6769532 (International Journal of Molecular Sciences, 2019).)
